For data set [1], the system named is CHO cells. The data set is described as follows: Uptake and internalisation of PD30 (LSCM). Type of data set: cell-based, Chinese hamster. The following applies: pH 7.4, 37° C., 30 minutes; PD30 1 mg/mL, free dyes 0.01 mg/mL. Here is the method:
(§1) CHO or HepG2 cells (80,000 cells/mL) were seeded into Willco dishes and incubated overnight (24 hours) at 37° C. in a humidity controlled incubator in an air atmosphere supplemented with 5% CO2.
(§2) The cells were then washed three times with 2 mL D-PBS (Sigma, Poole, Dorset, UK) to remove excess serum. 2 mL of PD30 at a concentration of 1 mg/mL in D-PBS (pH 7.4) was added, and the cells incubated for 10 minutes at 37° C. in a humidity controlled incubator in an air atmosphere supplemented with 5% CO2.
(§3) Controls were prepared similarly, by the addition of 2 mL of bis-amino Cy3 at a concentration of 0.01 mg/mL in D-PBS (pH 7.4), or 2 mL of bis-sulphonic acid Cy3 at a concentration of 0.01 mg/mL in D-PBS (pH 7.4), followed by incubation for 10 minutes at 37° C. in a humidity controlled incubator in an air atmosphere supplemented with 5% CO2.
(§4) Laser Scanning Confocal Microscopy (LSCM) images were then obtained at 10 minute intervals, using an Olympus FV300 LSCM (Department of Chemical Engineering, University of Cambridge, Cambridge, Cambridgeshire, UK). The cells remained on the microscope for the duration of the imaging experiments.

For data set [2], the system named is HepG2 cells. The data set is described as follows: Uptake and internalisation of PD30 (LSCM). Format: cell-based, Human. The following applies: pH 7.4, 37° C., 30 minutes; PD30 1 mg/mL, bis-amino Cy3 0.01 mg/mL. Here is the method:
as §1, §2, §3, §4

A short description of data set [3]: Spectrophotometric titration with HCl. Type of data set: physicochemical. The following applies: read-out: pKa of the bis-amino groups. Here is the method: Aqueous solutions of polymers were titrated by with 1.0 N HCl delivered to an Aminco-SDP-125 spectrofluorimeter, equipped with a flow through cell, from a titration vessel, via a peristaltic pump.
Spectrophotometric titrations were carried out for a mixture of poly(L-lysine iso-phthalamide) at a concentration of 0.5 g/l and free bis-amino Cy3 at a fluorophore concentration of 0.26 mM (0.1 g/l), which yields the maximum emission intensity for this polymer/fluorophore combination.

Data set [4] concerns MCF7 cells. The data set is described as follows: Polymer-conjugated doxorubicin uptake (flow cytometry). Type of data set: cell-based, human. The following applies: 2 mM doxorubicin or equivalent; for uptake into cells: serum-free medium. The method, then:
(§5) Control solutions, containing polymer (with no doxorubicin) and medium alone were also prepared. […] Samples (1 mL) of each test solution were placed in Eppindorf centrifuge tubes and placed in an incubator at 37° C. under a 5% CO2 atmosphere. 2×10^6 cells of each type were suspended in 300 μL of cell culture media (10% foetal calf serum, 2 mM L-Glutamine, 100 U/mL penicillin and 100 μg/mL streptomycin) and incubated at 37° C. under a 5% CO2 atmosphere. The study was initiated by adding 10 μL of cells to each test sample. After selected exposure times, the cells were pelleted by centrifuge and placed on ice. The cells were then re-suspended in phosphate buffer and analysed using a flow cytometer gated to count […] (approximately 10% of the total cell count). A histogram of fluorescence intensity vs. number of events, and the median value of fluorescence intensity, was recorded for each sample. Background fluorescence for cells alone, or for cells with DMSO, was subtracted from the corresponding test samples.
A general note: A flow cytometer gives signals particle by particle.

Data set [5] concerns MCF7/MXR cells. Described as above. Format: cell-based, human. The following applies: 2 mM doxorubicin or equivalent; for uptake into cells: serum-free medium. Here is the method: as §5
Data set [6] has as its system MCF7 cells. The following applies: 5 days. Here is the method:
(§6) Subsequently, a standard MTT (3-(4,5-dimethylthiazol-2-yl)-2,5-diphenyl-2H-tetrazolium bromide) assay was performed in order to assess cell viability.
(§7) The total DMSO concentration was adjusted to 1% by volume, and the cells incubated at 37° C. under a 5% CO2 atmosphere for 5 days. […] Subsequently, a standard MTT assay was performed in order to assess cell viability.

Data set [7] has as its system MCF7/MXR cells. The following applies: 5 days. Here is the method:
as §6, §7

For data set [8] the following is noted: at 25° C.; cited from earlier work.
In data set [9] the test system is CHO cells. The experiment in a line: Interaction of PD20 with CHO cells at pH 7.4 and pH 5.5 (fluorescence microscopy). Type of data set: cell-based, Chinese hamster. The following applies: 30 minute incubation at 37° C. The method, then:
A 2 mL suspension of CHO cells (10^5 cells/mL) was seeded into WilCo dishes (Intracel, Royston, UK) and incubated overnight (24 hours) at 37° C. in a humidity controlled incubator in an air atmosphere supplemented with 5% CO2.
The CHO cells were then washed three times with 100 μl of D-PBS (Sigma, Poole, Dorset, UK) to remove excess serum. 2 mL of PD20 (1 mg/mL) in D-PBS (Sigma, Poole, Dorset, UK) at pH 7.4 or titrated to pH 5.5 with 0.1 M HCl was then added to the Willco dishes.
The dishes were incubated for 30 minutes, the PD20 removed (by aspiration) and the cells washed three times with 2 mL D-PBS (Sigma, Poole, Dorset, UK) adjusted to pH 7.4 or pH 5.5 with 1.0 M HCl.
The CHO cells were then re-suspended in 2 mL of D-PBS at pH 7.4 or titrated to pH 5.5 with 0.1 M HCl and fluorescent photomicrogram images obtained on a Laser Scanning Confocal Zeiss LSM410 microscope (λex 535 nm, λem 570 nm) with a ×20 magnification lens (Amersham Biosciences, Cardiff, UK).
Phase contrast images of the CHO cells were obtained on the same microscope in non-fluorescence mode.

In data set [10] the test system is CHO cells. The experiment in a line: Interaction of PD20 with CHO cells at pH 7.4, 6.0 or 5.0 (confocal time course). Type of data set: cell-based, Chinese hamster. Here is the method:
CHO cells (80,000/mL) were seeded into WilCo dishes and incubated overnight (24 hours) at 37° C. in a humidity controlled incubator in an air atmosphere supplemented with 5% CO2.
The CHO cells were then washed three times with 2 mL D-PBS (Sigma, Poole, Dorset, UK) to remove excess serum and incubated with 2 mL PD20 (1 mg/mL) in serum-free medium (F12 Nutrient Ham Mixture, Sigma, Poole, Dorset, UK) titrated to pH 7.4, 6.0, or 5.0 with 0.1 M HCl.
The CHO cells were then incubated for 10 minutes and washed three times with 2 mL D PBS (pH 7.4, 6.0, or 5.0). 2 mL of fresh D-PBS at the required pH (pH 7.4, 6.0, or 5.0) was added to each dish and the CHO cells were then imaged on a Zeiss LSM410 confocal microscope (Amersham Biosciences, Cardiff, UK) for 1 hour at 10 minute intervals (to reduce photobleaching and cell exposure to the laser). The cells were maintained at 37° C. on an integral heater stage.
The confocal microscope images were quantified using Metamorph™ software to give the fluorescence intensity.

Data set [11] relates to HepG2 cells. The experiment in a line: Co-localisation of PD20 with FITC-Alexa Fluor 488. Format: cell-based, Human. The following applies: 1 mg/mL, 15 minutes, pH 7.4. The method, then: HepG2 cells (80,000/mL) were seeded into WilCo dishes, and incubated overnight (24 hours) at 37° C. in a humidity controlled incubator in an air atmosphere supplemented with 5% CO2.
The HepG2 cells were then incubated for a period of 15 minutes with a mixture of PD20 at a concentration of 1 mg/mL and the endosomal labelling fluorophore FITC-Alexa Fluor 488 (Cambridge Biosciences, Cambridge, UK) at a concentration of 50 μg/mL in serum free medium (Dulbecco's Modified Eagle Medium, DMEM) appropriate for HepG2 cells (total volume 2 mL) at pH 7.4.
The supernatant was then removed and the cells washed three times with 2 mL DMEM. 2 mL of fresh D-PBS was added to each dish and the CHO cells were then imaged on a Zeiss LSM410 confocal microscope (λex 535 nm, λem 570 nm for PD20, λex 495 nm, λem 518 nm for FITC Alexa Fluor 488) (Amersham Biosciences, Cardiff, UK).

“Also recorded” adds a separate entry of the source. Read-outs that look alike come from different tables or passages of the source.

As usually defined, the pKa is the pH at which an ionisable group is half protonated.

On to `CCN1/C(=C/C=C/C2=[N+](CC)c3ccc(CN)cc3C2(C)C)C(C)(C)c2cc(CN)ccc21` [bis-amino Cy3, reference compound], for which the “subcellular localisation after uptake” value in data set [1] and in data set [2] was “localised in the endosome” each time. Besides, the nuclear staining result in data set [2] is on record as “No nuclear staining”. For the same molecule, the pKa in [3] is 9.5.

For the molecule `COc1cccc2c1C(=O)c1c(O)c3c(c(O)c1C2=O)C[C@@](O)(C(=O)CO)C[C@@H]3O[C@H]1C[C@H](N)[C@H](O)[C@H](C)O1` [doxorubicin, reference compound], the “effect of 1% DMSO on uptake” value in data set [4] and in data set [5] was “significantly enhances” throughout. Further, the uptake into cells entry in data set [4] and in [5] was “taken up into cells” in each case. The cytotoxic effect result in data set [6] (1% by volume of DMSO), in [6] (without DMSO), in data set [7] (1% by volume of DMSO) and in [7] (without DMSO) was “significant cytotoxic effects” each time.

For the molecule `NCCCC[C@H](N)C(=O)O` [lysine], the pKa result in data set [8] is “about 2.18”.

Regarding “Poly(L-lysine-co-Cy3-iso-phthalamide) [PD20]”, the “adsorption onto the extracellular membrane of CHO cells” value in [9] (pH 5.5, 1 mg/mL) is reported as “extensive adsorption”. Further, the “adsorption onto the membrane of CHO cells” value in [9] (pH 7.4, 1 mg/mL) is recorded as “weakly adsorbed”. Besides, the “initial relative fluorescence intensity of cells at pH 6.0 and pH 5.0 versus pH 7.4” value in data set [10] (1 mg/mL) is recorded as “more than three times larger”. The “time at which fluorescence intensity peaked” value in data set [10] (pH 5.0, 1 mg/mL) amounted to 20 min; in data set [10] (pH 6.0, 1 mg/mL) it was 30 min. In addition, in data set [10] (pH 7.4, 1 mg/mL), the “relative fluorescence intensity of the cells with time” value is listed as “gradual increase”. The “co-localisation with endosomal stain FITC-Alexa Fluor 488” value in data set [11] is listed as “uptake of the PD20 into the endosomal compartment”.

With “Poly(L-lysine-co-Cy3-iso-phthalamide) [PD30]”, the nuclear staining result in [1] was “heavily stained; also recorded: clearly associated with the nucleus”; in data set [2], “heavy staining in the nucleus; also recorded: extensive nuclear staining”. Besides, the “subcellular localisation after uptake” value in data set [1] and in [2] was “localised in the nucleus” each time.

As for “poly(lysine iso-phthalamide-co-lysine DOX iso-phthalamide) [polymer-conjugated doxorubicin]”, in data set [4], the “effect of 1% DMSO on uptake” value was “little effect” and the uptake into cells result is recorded as “taken up into cells”. Besides, in data set [5], the “effect of 1% DMSO on uptake” value is listed as “little effect” and the uptake into cells entry was “taken up into cells”.

The values above are taken from patent US20060172418A1, “Hypercoiling polymers and their use in cellular delivery” (priority 2002, published 2006).
